Structures can show the parent of a compound that is named as a salt. Where two headings read alike, the source gives them in different places.
Key:
[1] = Refractive index ne at 23° C., reference wavelength 546.1 nm; format: physicochemical
[2] = source Merck; cited from earlier work
[3] = pure substance, 23° C., 546.1 nm

| Compound | ne (refractive index) of the substance [1, 3] | also measured |
| --- | --- | --- |
| CCCC(O)C(CC)CO (centres unmarked) [2-ethylhexane-1,3-diol] | 1.4518 | – |
| OCC(F)(OC(F)(F)C(F)(OC(F)(F)C(F)(F)C(F)(F)F)C(F)(F)F)C(F)(F)F (centres unmarked) [Cheminox PO-3-OH, 2,3,3,3-tetrafluoro-2-[1,1,2,3,3,3-hexafluoro-2-(heptafluoropropoxy)propoxy]-1-propanol] | – | ne (refractive index) of the substance [1]: 1.2944 |
| CCCCC(CC)COC(=O)CCCCCCCCC(=O)OCC(CC)CCCC (centres unmarked) [bis (2-ethylhexyl) sebacate] | 1.4511 | – |
| CC(=O)CC(C)(C)O [diacetone alcohol, 4-hydroxy-4-methyl-2-pentanone] | 1.4244 | – |
| CCOC(=O)/C=C/C(=O)OCC [diethyl fumarate] | 1.4419 | – |
| CCOC(=O)/C=C\C(=O)OCC [diethyl maleate] | 1.4414 | – |
| CCOC(=O)CCC(=O)OCC [diethyl succinate] | 1.4200 | – |
| CCOCCOCCOCC [diethylene glycol diethyl ether] | 1.4126 | – |
| COC(=O)CCCCC(=O)OC [dimethyl adipate] | 1.4289 | – |
| COC(=O)/C=C\C(=O)OC [dimethyl maleate] | 1.4435 | – |
| CC(=O)OCCOC(C)=O [ethylene glycol diacetate] | 1.4161 | – |
| O.O.O.O.O.O.O.O=S(=O)([O-])[O-].[Mg+2] [magnesium sulfate heptahydrate] | – | ne (refractive index) of aqueous solution 200 g/L [1]: 1.3529 |
| O.O.[Na+].[Na+].[O]=[Mo](=[O])([O-])[O-] [sodium molybdate dihydrate] | – | solubility in water (20° C.) [2]: 840 mg/mL |
| O=C([O-])c1ccccc1O.[Na+] [sodium salicylate] | – | ne (refractive index) of aqueous solution 200 g/L [1]: 1.3747 |
| N#C[S-].[Na+] [sodium thiocyanate] | – | ne (refractive index) of aqueous solution 200 g/L [1]: 1.3765 |
| O.O.[Na+].[Na+].[O]=[W](=[O])([O-])[O-] [sodium tungstate dihydrate] | – | solubility in water (20° C.) [2]: 730 mg/mL; ne (refractive index) of aqueous solution 200 g/L [1]: 1.3531 |
| CCOC(=O)CC(O)(CC(=O)OCC)C(=O)OCC [triethyl citrate] | 1.4431 | – |
| CCCCC(CC)C(=O)OCCOCCOCCOC(=O)C(CC)CCCC (centres unmarked) [triethylene glycol bis(2-ethylhexanoate)] | 1.4449 | – |
| ammonium sulfate | – | ne (refractive index) of aqueous solution 200 g/L [1]: 1.3629 |
| bis(hydroxymethyl)perfluoropolyether [Cheminox OXF-3PO-OH] | 1.3220 | – |
| dimethyl propylene urea | – | ne (refractive index) of the substance [1]: 1.4909 |
| tetrahydrofurfuryl alcohol polyethylene glycol ether | – | ne (refractive index) of the substance [1]: 1.4621 |
